Patent publication US7517874B2 (priority 2007, dated 2009)

Experiments:
[1] = biological target: human CB1 receptor (hCB1) (Homo sapiens, UniProt P21554); test: cell-based; format: cell-based; settings: for +/− HCB1: agonist or inverse agonist at hCB1
Procedure, shortened: (§1)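 Readout: LANCE TR-FRET cAMP, back-calculated from a concurrent standard curve and scaled between forskolin-only and forskolin + 1 μM CP55,940 wells. EC50 and intrinsic activity came from four-parameter fits.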

rat CB2 receptor (rCB2) = biological target: T1, rat CB2 receptor (rCB2) (Rattus norvegicus, UniProt Q9QZN9); test: cell-based; format: cell-based; settings: agonist or inverse agonist at rCB2
T1 sequence (Q9QZN9 1-360): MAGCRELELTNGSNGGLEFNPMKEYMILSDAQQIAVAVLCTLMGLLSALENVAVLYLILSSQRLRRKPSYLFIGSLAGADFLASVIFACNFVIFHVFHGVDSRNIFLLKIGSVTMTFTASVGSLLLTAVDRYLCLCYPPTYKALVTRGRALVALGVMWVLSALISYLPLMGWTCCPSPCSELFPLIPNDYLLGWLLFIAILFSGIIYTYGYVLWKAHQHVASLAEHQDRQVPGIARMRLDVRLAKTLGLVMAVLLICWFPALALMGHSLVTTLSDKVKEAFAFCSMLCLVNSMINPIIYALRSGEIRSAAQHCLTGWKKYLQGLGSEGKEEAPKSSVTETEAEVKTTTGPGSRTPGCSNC
Procedure, shortened: as §1

human CB1 receptor (hCB1), sequence (P21554 whole entry): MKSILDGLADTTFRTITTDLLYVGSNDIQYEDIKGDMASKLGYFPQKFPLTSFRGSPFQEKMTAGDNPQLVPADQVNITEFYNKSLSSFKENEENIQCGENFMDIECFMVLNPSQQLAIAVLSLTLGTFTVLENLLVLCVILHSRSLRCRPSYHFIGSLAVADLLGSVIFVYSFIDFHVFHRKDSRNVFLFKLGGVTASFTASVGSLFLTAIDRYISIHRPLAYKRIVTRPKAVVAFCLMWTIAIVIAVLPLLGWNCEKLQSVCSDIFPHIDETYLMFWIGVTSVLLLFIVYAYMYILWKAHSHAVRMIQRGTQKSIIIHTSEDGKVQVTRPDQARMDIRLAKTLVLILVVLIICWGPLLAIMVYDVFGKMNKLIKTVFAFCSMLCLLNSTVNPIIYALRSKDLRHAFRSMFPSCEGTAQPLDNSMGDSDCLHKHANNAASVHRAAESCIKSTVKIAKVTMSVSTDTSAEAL

SMILES	+/− HCB1 [1]	+/− RCB2 (rat CB2 receptor (rCB2))	EC50 [1] [µM]
CC(C)C[C@H](NC(=O)c1nc(-c2ccc(Cl)cc2F)n2c1CN(C)CCC2)C(N)=O [Compound 564, (S)-N-(1-amino-4-methyl-1-oxopentan-2-yl)-3-(4-chloro-2-fluorophenyl)-8-methyl-6,7,8,9-tetrahydro-5H-imidazo[1,5-a][1,4]diazepine-1-carboxamide]	+	+	–
CC(C)C[C@H](NC(=O)c1nc(-c2ccc(F)cc2)n2c1CN(C)CCC2)C(N)=O [Compound 565, (S)-N-(1-amino-4-methyl-1-oxopentan-2-yl)-3-(4-fluorophenyl)-8-methyl-6,7,8,9-tetrahydro-5H-imidazo[1,5-a][1,4]diazepine-1-carboxamide]	–	+	> 10
CC(C)C[C@H](NC(=O)c1nc(-c2cccc(F)c2)n2c1CN(C)CCC2)C(N)=O [Compound 566, (S)-N-(1-amino-4-methyl-1-oxopentan-2-yl)-3-(3-fluorophenyl)-8-methyl-6,7,8,9-tetrahydro-5H-imidazo[1,5-a][1,4]diazepine-1-carboxamide]	–	+	> 10
CC(C)C[C@H](NC(=O)c1nc(-c2cc(F)ccc2F)n2c1CN(C)CCC2)C(N)=O [Compound 567, (S)-N-(1-amino-4-methyl-1-oxopentan-2-yl)-3-(2,5-difluorophenyl)-8-methyl-6,7,8,9-tetrahydro-5H-imidazo[1,5-a][1,4]diazepine-1-carboxamide]	–	+	> 10
CC(C)C[C@H](NC(=O)c1nc(-c2ccc(F)cc2F)n2c1CN(C)CCC2)C(N)=O [Compound 568, (S)-N-(1-amino-4-methyl-1-oxopentan-2-yl)-3-(2,4-difluorophenyl)-8-methyl-6,7,8,9-tetrahydro-5H-imidazo[1,5-a][1,4]diazepine-1-carboxamide]	+	+	–
CC(C)C[C@H](NC(=O)c1nc(-c2cc(Cl)ccc2F)n2c1CN(C)CCC2)C(N)=O [Compound 569, (S)-N-(1-amino-4-methyl-1-oxopentan-2-yl)-3-(5-chloro-2-fluorophenyl)-8-methyl-6,7,8,9-tetrahydro-5H-imidazo[1,5-a][1,4]diazepine-1-carboxamide]	+	+	–
CC(C)C[C@H](NC(=O)c1nc(C2CCCCC2)n2c1CN(C)CCC2)C(N)=O [Compound 570, (S)-N-(1-amino-4-methyl-1-oxopentan-2-yl)-3-cyclohexyl-8-methyl-6,7,8,9-tetrahydro-5H-imidazo[1,5-a][1,4]diazepine-1-carboxamide]	+	+	–
CC(C)C[C@H](NC(=O)c1nc(-c2cc(Cl)c(F)cc2F)n2c1CN(C)CCC2)C(N)=O [Compound 571, (S)-N-(1-amino-4-methyl-1-oxopentan-2-yl)-3-(5-chloro-2,4-difluorophenyl)-8-methyl-6,7,8,9-tetrahydro-5H-imidazo[1,5-a][1,4]diazepine-1-carboxamide]	+	+	–
CC(C)C[C@H](NC(=O)c1nc(-c2cc(F)c(F)cc2F)n2c1CN(C)CCC2)C(N)=O [Compound 572, (S)-N-(1-amino-4-methyl-1-oxopentan-2-yl)-8-methyl-3-(2,4,5-trifluorophenyl)-6,7,8,9-tetrahydro-5H-imidazo[1,5-a][1,4]diazepine-1-carboxamide]	+	+	–
CN1CCCn2c(-c3ccc(Cl)cc3F)nc(C(=O)N[C@H](C(N)=O)C(C)(C)C)c2C1 [Compound 573, (S)-N-(1-amino-3,3-dimethyl-1-oxobutan-2-yl)-3-(4-chloro-2-fluorophenyl)-8-methyl-6,7,8,9-tetrahydro-5H-imidazo[1,5-a][1,4]diazepine-1-carboxamide]	+	+	–
CN1CCCn2c(-c3cc(Cl)ccc3F)nc(C(=O)N[C@H](C(N)=O)C(C)(C)C)c2C1 [Compound 574, (S)-N-(1-amino-3,3-dimethyl-1-oxobutan-2-yl)-3-(5-chloro-2-fluorophenyl)-8-methyl-6,7,8,9-tetrahydro-5H-imidazo[1,5-a][1,4]diazepine-1-carboxamide]	+	+	–
CN1CCCn2c(-c3cc(F)ccc3F)nc(C(=O)N[C@H](C(N)=O)C(C)(C)C)c2C1 [Compound 575, (S)-N-(1-amino-3,3-dimethyl-1-oxobutan-2-yl)-3-(2,5-difluorophenyl)-8-methyl-6,7,8,9-tetrahydro-5H-imidazo[1,5-a][1,4]diazepine-1-carboxamide]	+	+	–
CN1CCCn2c(-c3ccc(F)c(Cl)c3)nc(C(=O)N[C@H](C(N)=O)C(C)(C)C)c2C1 [Compound 576, (S)-N-(1-amino-3,3-dimethyl-1-oxobutan-2-yl)-3-(3-chloro-4-fluorophenyl)-8-methyl-6,7,8,9-tetrahydro-5H-imidazo[1,5-a][1,4]diazepine-1-carboxamide]	+	+	–
CN1CCCn2c(-c3ccc(Cl)c(F)c3)nc(C(=O)N[C@H](C(N)=O)C(C)(C)C)c2C1 [Compound 577, (S)-N-(1-amino-3,3-dimethyl-1-oxobutan-2-yl)-3-(4-chloro-3-fluorophenyl)-8-methyl-6,7,8,9-tetrahydro-5H-imidazo[1,5-a][1,4]diazepine-1-carboxamide]	+	+	–
CN1CCCn2c(-c3ccc(F)cc3F)nc(C(=O)N[C@H](C(N)=O)C(C)(C)C)c2C1 [Compound 578, (S)-N-(1-amino-3,3-dimethyl-1-oxobutan-2-yl)-3-(2,4-difluorophenyl)-8-methyl-6,7,8,9-tetrahydro-5H-imidazo[1,5-a][1,4]diazepine-1-carboxamide]	+	+	–
CN1CCCn2c(-c3cc(F)c(F)cc3F)nc(C(=O)N[C@H](C(N)=O)C(C)(C)C)c2C1 [Compound 579, (S)-N-(1-amino-3,3-dimethyl-1-oxobutan-2-yl)-8-methyl-3-(2,4,5-trifluorophenyl)-6,7,8,9-tetrahydro-5H-imidazo[1,5-a][1,4]diazepine-1-carboxamide]	+	+	–
CN1CCCn2c(-c3cc(Cl)c(F)cc3F)nc(C(=O)N[C@H](C(N)=O)C(C)(C)C)c2C1 [Compound 580, (S)-N-(1-amino-3,3-dimethyl-1-oxobutan-2-yl)-3-(5-chloro-2,4-difluorophenyl)-8-methyl-6,7,8,9-tetrahydro-5H-imidazo[1,5-a][1,4]diazepine-1-carboxamide]	+	+	–
CN1CCCn2c(-c3ccc(F)c(F)c3)nc(C(=O)N[C@H](C(N)=O)C(C)(C)C)c2C1 [Compound 581, (S)-N-(1-amino-3,3-dimethyl-1-oxobutan-2-yl)-3-(3,4-difluorophenyl)-8-methyl-6,7,8,9-tetrahydro-5H-imidazo[1,5-a][1,4]diazepine-1-carboxamide]	+	+	–
CN1CCCn2c(-c3ccccc3)nc(C(=O)N[C@H](C(N)=O)C(C)(C)C)c2C1 [Compound 582]	–	+	> 10
CN1CCCn2c(-c3cc(F)ccc3F)nc(C(=O)N[C@@H](CC(C)(C)C)C(N)=O)c2C1 [Compound 583, (S)-N-(1-amino-4,4-dimethyl-1-oxopentan-2-yl)-3-(2,5-difluorophenyl)-8-methyl-6,7,8,9-tetrahydro-5H-imidazo[1,5-a][1,4]diazepine-1-carboxamide]	+	+	–
CN1CCCn2c(-c3ccc(Cl)cc3F)nc(C(=O)N[C@@H](CC(C)(C)C)C(N)=O)c2C1 [Compound 584, (S)-N-(1-amino-4,4-dimethyl-1-oxopentan-2-yl)-3-(4-chloro-2-fluorophenyl)-8-methyl-6,7,8,9-tetrahydro-5H-imidazo[1,5-a][1,4]diazepine-1-carboxamide]	+	+	–
CN1CCCn2c(-c3cc(Cl)ccc3F)nc(C(=O)N[C@@H](CC(C)(C)C)C(N)=O)c2C1 [Compound 585, (S)-N-(1-amino-4,4-dimethyl-1-oxopentan-2-yl)-3-(5-chloro-2-fluorophenyl)-8-methyl-6,7,8,9-tetrahydro-5H-imidazo[1,5-a][1,4]diazepine-1-carboxamide]	+	+	–
CN1CCCn2c(-c3ccc(F)c(F)c3)nc(C(=O)N[C@@H](CC(C)(C)C)C(N)=O)c2C1 [Compound 586, (S)-N-(1-amino-4,4-dimethyl-1-oxopentan-2-yl)-3-(3,4-difluorophenyl)-8-methyl-6,7,8,9-tetrahydro-5H-imidazo[1,5-a][1,4]diazepine-1-carboxamide]	+	+	–
CN1CCCn2c(-c3ccc(F)c(Cl)c3)nc(C(=O)N[C@@H](CC(C)(C)C)C(N)=O)c2C1 [Compound 587, (S)-N-(1-amino-4,4-dimethyl-1-oxopentan-2-yl)-3-(3-chloro-4-fluorophenyl)-8-methyl-6,7,8,9-tetrahydro-5H-imidazo[1,5-a][1,4]diazepine-1-carboxamide]	+	+	–
CN1CCCn2c(-c3ccc(Cl)c(F)c3)nc(C(=O)N[C@@H](CC(C)(C)C)C(N)=O)c2C1 [Compound 588, (S)-N-(1-amino-4,4-dimethyl-1-oxopentan-2-yl)-3-(4-chloro-3-fluorophenyl)-8-methyl-6,7,8,9-tetrahydro-5H-imidazo[1,5-a][1,4]diazepine-1-carboxamide]	+	+	–
